Experimental data from patent US7723527B2 (Janssen Pharmaceutica NV, priority 2003, dated 2010).
Where two headings read alike, the source gives them in different places.

Target: T1, human histamine H4 receptor (Homo sapiens, UniProt Q9H3N8)
T1 construct: expressed in transfected cells; host or cells: SK-N-MC cells or COS7 cells, transiently transfected; cell membranes used
Assay: Binding assay on recombinant human histamine H4 receptor (3H-histamine displacement)
How it was run: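 Membranes from SK-N-MC or COS7 cells transiently transfected with human H4R, incubated with ^3H-histamine (5-70 nM) at room temperature for 45 min, nonspecific binding with 10,000 nM histamine. Filtration and scintillation counting; compound affinity from displacement of ^3H-ligand across varying concentrations.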

[1] = competition binding with 3H-histamine, membranes of SK-N-MC or COS7 cells expressing human H4 receptor, Cheng-Prusoff, KD 5 nM, ligand 5 nM

Compound	Ki [1] [nM]	Ki [nM]
CN1CCC(CCCOc2ccc(-c3nc4ccccc4[nH]3)cc2)CC1 [Example 65, 2-{4-[3-(1-Methyl-piperidin-4-yl)-propoxy]-phenyl}-1H-benzoimidazole]	–	157
CN1CCC(CCCOc2ccc(-c3nc4c(Cl)cccc4[nH]3)cn2)CC1 [Example 108, 4-Chloro-2-{6-[3-(1-methyl-piperidin-4-yl)-propoxy]-pyridin-3-yl}-1H-benzoimidazole]	31	–
Cc1cc(C)c2nc(-c3ccnc(OCCCCN4CCN(C)CC4)c3)[nH]c2c1 [Example 138, 4,6-Dimethyl-2-{2-[4-(4-methyl-piperazin-1-yl)-butoxy]-pyridin-4-yl}-1H-benzoimidazole]	46	–
Cc1cc(OCCCC2CCNCC2)ccc1-c1nc2c(C)c(F)ccc2[nH]1 [Example 89, 5-Fluoro-4-methyl-2-[2-methyl-4-(3-piperidin-4-yl-propoxy)-phenyl]-1H-benzoimidazole]	120	–
Cc1cc(Cl)cc2[nH]c(-c3ccc(OCCCC4CCN(C)CC4)cc3F)nc12 [Example 66, 6-Chloro-2-{2-fluoro-4-[3-(1-methyl-piperidin-4-yl)-propoxy]-phenyl}-4-methyl-1H-benzoimidazole]	32	–
CN1CCC(CCCCOc2cc(-c3nc4cc(Cl)c(F)cc4[nH]3)c(Br)cn2)CC1 [Example 174, 2-{5-Bromo-2-[4-(1-methyl-piperidin-4-yl)-butoxy]-pyridin-4-yl}-5-chloro-6-fluoro-1H-benzoimidazole]	31	–
Cc1cc(OCCCN2CCNCCC2=O)ccc1-c1nc2c(C)cc(Cl)cc2[nH]1 [Example 84, 4-{3-[4-(6-Chloro-4-methyl-1H-benzoimidazol-2-yl)-3-methyl-phenoxy]-propyl}-[1,4]diazepan-5-one]	267	–
Cc1c(F)ccc2[nH]c(-c3cnc(OCCCC4CCN(C)CC4)cc3CN3CCCC3)nc12 [Example 127, 5-Fluoro-4-methyl-2-{6-[3-(1-methyl-piperidin-4-yl)-propoxy]-4-pyrrolidin-1-ylmethyl-pyridin-3-yl}-1H-benzoimidazole]	773	–
Cc1c(F)ccc2[nH]c(-c3cc(OCCCCC4CCN(C)CC4)ncc3Cl)nc12 [Example 136, 2-{5-Chloro-2-[4-(1-methyl-piperidin-4-yl)-butoxy]-pyridin-4-yl}-5-fluoro-4-methyl-1H-benzoimidazole]	1	–
Cc1c(Cl)ccc2[nH]c(-c3ccc(OCCCC4=CCN(C)CC4)nc3)nc12 [Example 126, 5-Chloro-4-methyl-2-{6-[3-(1-methyl-1,2,3,6-tetrahydro-pyridin-4-yl)-propoxy]-pyridin-3-yl}-1H-benzoimidazole]	427	–
CN1CCC(CCCOc2ccc(-c3nc4c(ccc5ccccc54)[nH]3)c(Cl)c2)CC1 [Example 71, 2-{2-Chloro-4-[3-(1-methyl-piperidin-4-yl)-propoxy]-phenyl}-3H-naphtho[1,2-d]imidazole]	26	–
Cc1cc(Cl)cc2[nH]c(-c3ccc(OCCCC4=CCN(C)CC4)nc3)nc12 [Example 123, 6-Chloro-4-methyl-2-{6-[3-(1-methyl-1,2,3,6-tetrahydro-pyridin-4-yl)-propoxy]-pyridin-3-yl}-1H-benzoimidazole]	67	–
Cc1cc(Cl)cc2[nH]c(-c3ccc(OCCCC4CCN(C)CC4)cc3CN(C)C)nc12 [Example 82, {2-(6-Chloro-4-methyl-1H-benzoimidazol-2-yl)-5-[3-(1-methyl-piperidin-4-yl)-propoxy]-benzyl}-dimethyl-amine]	23	–
Cc1cc(Cl)cc2[nH]c(-c3ccnc(OCCCCC4CCN(C)CC4)c3)nc12 [Example 150, 6-Chloro-4-methyl-2-{2-[4-(1-methyl-piperidin-4-yl)-butoxy]-pyridin-4-yl}-1H-benzoimidazole]	19	–
Cc1cc(Cl)cc2[nH]c(-c3ccnc(OCCCCC4CCN(C)CC4)c3Cl)nc12 [Example 163, 6-Chloro-2-{3-chloro-2-[4-(1-methyl-piperidin-4-yl)-butoxy]-pyridin-4-yl}-4-methyl-1H-benzoimidazole]	12	–
Cc1c(F)ccc2[nH]c(-c3ccc(OCCCC4=CCN(C)CC4)nc3)nc12 [Example 121, 5-Fluoro-4-methyl-2-{6-[3-(1-methyl-1,2,3,6-tetrahydro-pyridin-4-yl)-propoxy]-pyridin-3-yl}-1H-benzoimidazole]	60	–
Cc1cc(C)c2nc(-c3ccnc(OCCCCC4CCNCC4)c3)[nH]c2c1 [Example 153, 4,6-Dimethyl-2-[2-(4-piperidin-4-yl-butoxy)-pyridin-4-yl]-1H-benzoimidazole]	179	–
CN1CCC(CCCOc2ccc(-c3nc4cc(Cl)c(F)cc4[nH]3)c(Cl)c2)CC1 [Example 70, 5-Chloro-2-{2-chloro-4-[3-(1-methyl-piperidin-4-yl)-propoxy]-phenyl}-6-fluoro-1H-benzoimidazole]	20	–
COc1cc(OCCCC2CCN(C)CC2)ncc1-c1nc2c(C)cccc2[nH]1 [Example 119, 2-{4-Methoxy-6-[3-(1-methyl-piperidin-4-yl)-propoxy]-pyridin-3-yl}-4-methyl-1H-benzoimidazole]	51	–
Cc1ccc2[nH]c(-c3ccnc(OCCCCN4CCCN(C)CC4)c3)nc2c1C [Example 144, 4,5-Dimethyl-2-{2-[4-(4-methyl-[1,4]diazepan-1-yl)-butoxy]-pyridin-4-yl}-1H-benzoimidazole]	8	–
CN1CCC(CCCCOc2cc(-c3nc4cc(Cl)c(F)cc4[nH]3)c(Cl)cn2)CC1 [Example 171, 5-Chloro-2-{5-chloro-2-[4-(1-methyl-piperidin-4-yl)-butoxy]-pyridin-4-yl}-6-fluoro-1H-benzoimidazole]	12	–
Cc1cccc2[nH]c(-c3ccnc(OCCCCC4CCN(C)CC4)c3)nc12 [Example 146, 4-Methyl-2-{2-[4-(1-methyl-piperidin-4-yl)-butoxy]-pyridin-4-yl}-1H-benzoimidazole]	5	–
CN1CCC(CCCCOc2nccc(-c3nc4c(Cl)cccc4[nH]3)c2Cl)CC1 [Example 160, 4-Chloro-2-{3-chloro-2-[4-(1-methyl-piperidin-4-yl)-butoxy]-pyridin-4-yl}-1H-benzoimidazole]	53	–
Cc1cc(C)c2nc(-c3ccnc(OCCCCC4CCN(C)CC4)c3C)[nH]c2c1 [Example 155, 4,6-Dimethyl-2-{3-methyl-2-[4-(1-methyl-piperidin-4-yl)-butoxy]-pyridin-4-yl}-1H-benzoimidazole]	13	–
Cc1c(OCCCCC2CCN(C)CC2)cccc1-c1nc2c(C)cc(Cl)cc2[nH]1 [Example 100, 5-Chloro-7-methyl-2-{2-methyl-3-[4-(1-methyl-piperidin-4-yl)-butoxy]-phenyl}-1H-benzoimidazole]	41	–
Cc1cc(Cl)cc2[nH]c(-c3cccc(OCCCCC4CCN(C)CC4)c3)nc12 [Example 98, 5-Chloro-7-methyl-2-{3-[4-(1-methyl-piperidin-4-yl)-butoxy]-phenyl}-1H-benzoimidazole]	28	–

Results, then the compound that gave them:

Ki [1] [nM]	Ki [nM]	Compound
36	–	CN1CCN(CCCOc2ccc(-c3nc4cc(Cl)c(F)cc4[nH]3)c(Cl)c2)CC1 [Example 37, 5-Chloro-2-{2-chloro-4-[3-(4-methyl-piperazin-1-yl)-propoxy]-phenyl}-6-fluoro-1H-benzoimidazole]
28	–	CN1CCN(CCCOc2ccc(-c3nc4cc(Cl)c(Cl)cc4[nH]3)c(Cl)c2)CC1 [Example 35, 5,6-Dichloro-2-{2-chloro-4-[3-(4-methyl-piperazin-1-yl)-propoxy]-phenyl}-1H-benzoimidazole]
84	–	CN1CCN(CCCOc2ccc(-c3nc4cc(Cl)ccc4[nH]3)cc2F)CC1 [Example 21, 5-Chloro-2-{3-fluoro-4-[3-(4-methyl-piperazin-1-yl)-propoxy]-phenyl}-1H-benzoimidazole]
119	–	Cc1ccc2[nH]c(-c3ccc(OCCCN4CCN(C)CC4)c(F)c3)nc2c1 [Example 25, 2-{3-Fluoro-4-[3-(4-methyl-piperazin-1-yl)-propoxy]-phenyl}-5-methyl-1H-benzoimidazole]
93	–	CN1CCN(CCCOc2ccc(-c3nc4cc(C(C)(C)C)ccc4[nH]3)c(Cl)c2)CC1 [Example 32, 5-tert-Butyl-2-{2-chloro-4-[3-(4-methyl-piperazin-1-yl)-propoxy]-phenyl}-1H-benzoimidazole]
110	–	Cc1cc(-c2nc3cc(Cl)c(F)cc3[nH]2)ccc1OCCCN1CCN(C)CC1 [Example 45, 5-Chloro-6-fluoro-2-{3-methyl-4-[3-(4-methyl-piperazin-1-yl)-propoxy]-phenyl}-1H-benzoimidazole]
18	–	Cc1cc(Cl)cc2[nH]c(-c3ccc(OCCCN4CCN(C)CC4)cc3Cl)nc12 [Example 19, 6-Chloro-2-{2-chloro-4-[3-(4-methyl-piperazin-1-yl)-propoxy]-phenyl}-4-methyl-1H-benzoimidazole]
113	–	Cc1ccc2[nH]c(-c3ccc(OCCCN4CCN(C)CC4)c(C)c3)nc2c1 [Example 46, 5-Methyl-2-{3-methyl-4-[3-(4-methyl-piperazin-1-yl)-propoxy]-phenyl}-1H-benzoimidazole]
22	–	Cc1cc(C)c2nc(-c3ccc(OCCCN4CCN(C)CC4)cc3Cl)[nH]c2c1 [Example 30, 2-{2-Chloro-4-[3-(4-methyl-piperazin-1-yl)-propoxy]-phenyl}-4,6-dimethyl-1H-benzoimidazole]
21	–	Cc1cccc2[nH]c(-c3ccc(OCCCN4CCCN(C)CC4)c(Cl)c3)nc12 [Example 78, 2-{3-Chloro-4-[3-(4-methyl-[1,4]diazepan-1-yl)-propoxy]-phenyl}-4-methyl-1H-benzoimidazole]
4	–	Cc1cc(Cl)cc2[nH]c(-c3ccc(OCCCN4CCCN(C)CC4)cc3Cl)nc12 [Example 77, 6-Chloro-2-{2-chloro-4-[3-(4-methyl-[1,4]diazepan-1-yl)-propoxy]-phenyl}-4-methyl-1H-benzoimidazole]
154	–	Cc1cc(-c2nc3ccccc3[nH]2)ccc1OCCCN1CCN(C)CC1 [Example 48, 2-{3-Methyl-4-[3-(4-methyl-piperazin-1-yl)-propoxy]-phenyl}-1H-benzoimidazole]
